Experimental data taken from the supplement of paper PMC10307832.

Legend:
Assay in all cases: relative viability (nuclei count vs DMSO), 5 days (fraction); higher = more cells survive
Metformin + Crizotinib = compound: CN(C)C(=N)NC(=N)N [Metformin] + C[C@@H](Oc1cc(-c2cnn(C3CCNCC3)c2)cnc1N)c1c(Cl)ccc(F)c1Cl [Crizotinib] (partner 1 µM)
Outline: (§1)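 Lung cancer cell lines were pin-tool dosed in 1536-well plates on the day after seeding, with either a lone drug or a fixed anchor-drug dose plus five library-drug doses (not always all listed) in √10 steps. Nuclei were counted on 4× images after 5 days. Relative viability is the ratio of treated-well to vehicle-well nuclei counts, with each value a median of duplicate plates.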

Metformin + Decitabine = compound: CN(C)C(=N)NC(=N)N [Metformin] + Nc1ncn([C@H]2C[C@H](O)[C@@H](CO)O2)c(=O)n1 [Decitabine] (partner 2 µM)
Outline: as §1

Apatinib + OSI-027 = compound: N#CC1(c2ccc(NC(=O)c3cccnc3NCc3ccncc3)cc2)CCCC1 [Apatinib] + COc1cccc2cc(-c3nc([C@H]4CC[C@H](C(=O)O)CC4)n4ncnc(N)c34)[nH]c12 [OSI-027] (partner 0.5 µM)
Outline: as §1

Metformin + OSI-027 = compound: CN(C)C(=N)NC(=N)N [Metformin] + COc1cccc2cc(-c3nc([C@H]4CC[C@H](C(=O)O)CC4)n4ncnc(N)c34)[nH]c12 [OSI-027] (partner 0.5 µM)
Outline: as §1

Row | Cell Line | relative viability (Metformin + Crizotinib; first compound 10 µM) | relative viability (Metformin + Crizotinib; first compound 31.62 µM) | relative viability (Metformin + Crizotinib; first compound 100 µM) | relative viability (Metformin + Crizotinib; first compound 316.23 µM) | relative viability (Metformin + Crizotinib; first compound 1000 µM) | relative viability (Metformin + Decitabine; first compound 10 µM) | relative viability (Metformin + Decitabine; first compound 31.62 µM) | relative viability (Metformin + Decitabine; first compound 100 µM) | relative viability (Metformin + Decitabine; first compound 316.23 µM) | relative viability (Metformin + Decitabine; first compound 1000 µM) | relative viability (Apatinib + OSI-027; first compound 0.08 µM) | relative viability (Apatinib + OSI-027; first compound 0.253 µM) | relative viability (Apatinib + OSI-027; first compound 0.8 µM) | relative viability (Apatinib + OSI-027; first compound 2.53 µM) | relative viability (Apatinib + OSI-027; first compound 8 µM) | relative viability (Metformin + OSI-027; first compound 10 µM) | relative viability (Metformin + OSI-027; first compound 31.62 µM) | relative viability (Metformin + OSI-027; first compound 100 µM) | relative viability (Metformin + OSI-027; first compound 316.23 µM) | relative viability (Metformin + OSI-027; first compound 1000 µM)
1 | NCI-H2126 | 0.863 | 0.946 | 0.957 | 0.908 | 0.956 | 0.554 | 0.592 | 0.557 | 0.571 | 0.562 | 0.816 | 0.641 | 0.666 | 0.585 | 0.664 | 0.682 | 0.725 | 0.8 | 0.787 | 0.656
2 | CAL-12T |  | 0.64 | 0.552 | 0.611 | 0.521 |  |  |  |  |  | 0.652 | 0.589 | 0.52 | 0.366 | 0.272 | 0.678 | 0.94 | 0.581 | 0.39 | 0.605
3 | NCI-H358 | 0.551 | 0.448 | 0.587 | 0.311 | 0.507 | 0.202 | 0.225 | 0.214 | 0.253 | 0.213 | 0.898 | 0.789 | 0.772 | 0.706 | 0.692 | 0.737 | 0.879 | 0.801 | 0.716 | 0.749
4 | HCC-44 | 0.824 | 0.788 | 0.785 | 0.749 | 0.776 |  | 0.934 | 0.927 | 0.959 | 0.966 | 0.457 | 0.524 | 0.395 | 0.446 | 0.522 | 1.14 | 0.921 | 0.696 | 0.632 | 0.491
5 | EKVX | 0.657 | 0.896 | 0.958 | 0.716 | 0.895 |  | 0.302 | 0.369 | 0.325 | 0.322 | 0.684 | 0.688 | 0.654 | 0.639 | 0.558 | 0.623 | 0.77 | 0.645 |  | 0.681
6 | NCI-H1734 | 0.743 | 0.83 | 0.654 | 0.669 | 0.74 | 0.502 | 0.425 | 0.435 | 0.442 | 0.499 | 0.597 | 0.597 | 0.578 | 0.495 | 0.453 | 0.653 | 0.581 | 0.537 | 0.544 | 0.618
7 | NCI-H1395 |  |  |  |  |  | 0.661 | 0.758 | 0.719 | 0.713 | 0.382 | 0.614 | 0.701 | 0.662 | 0.693 | 0.639 | 0.74 | 0.899 | 0.669 | 0.693 | 0.75
8 | SW 900 |  |  |  |  |  | 0.41 | 0.389 |  | 0.412 | 0.492 | 0.563 | 0.605 | 0.497 | 0.545 | 0.412 | 0.597 | 0.781 | 0.617 | 0.544 | 0.538
9 | NCI-H1975 | 1.09 | 1.12 | 1.21 | 1.06 | 1.27 | 0.334 | 0.402 | 0.65 | 0.323 | 0.394 | 0.718 | 0.901 | 0.55 | 0.418 | 0.42 | 0.96 | 1.08 | 0.748 | 0.891 | 0.949
10 | Calu-6 | 0.637 | 0.755 | 0.71 | 0.691 | 0.714 |  |  |  |  |  |  |  |  |  |  |  |  |  |  | 
11 | EBC-1 | 0.205 | 0.154 | 0.205 | 0.173 | 0.222 |  |  |  |  |  |  |  |  |  |  |  |  |  |  | 
12 | IA-LM | 0.76 | 0.944 |  | 0.926 | 0.973 |  |  |  |  |  |  |  |  |  |  |  |  |  |  | 
13 | NCI-H2228 | 0.48 | 0.515 |  | 0.385 | 0.581 |  |  |  |  |  | 0.472 | 0.761 | 0.547 | 0.429 | 0.448 | 0.81 | 0.551 | 0.456 | 0.513 | 0.792
14 | NCI-H1648 |  |  |  |  |  |  | 0.512 | 0.555 | 0.535 | 0.656 | 0.272 | 0.253 | 0.265 | 0.267 | 0.261 | 0.24 | 0.264 | 0.264 | 0.285 | 0.279
15 | NCI-H1623 |  |  |  |  |  |  |  |  |  |  | 0.443 | 0.423 | 0.404 | 0.351 | 0.385 | 0.449 | 0.469 | 0.463 | 0.539 | 0.478
16 | NCI-H1563 | 0.855 | 0.889 | 0.865 | 0.793 | 0.827 |  |  |  |  |  | 0.812 | 0.865 | 0.731 | 0.706 | 0.718 | 0.742 | 0.797 | 0.778 | 0.722 | 0.866
17 | NCI-H1703 | 0.989 | 0.934 | 0.66 | 0.679 | 0.886 |  |  |  |  |  |  |  |  |  |  |  |  |  |  | 
18 | NCI-H1299 | 0.98 | 0.962 | 0.975 | 0.972 | 1.04 |  |  |  |  |  |  |  |  |  |  |  |  |  |  | 
19 | NCI-H522 |  |  |  |  |  | 0.659 | 0.599 | 0.679 | 0.648 | 0.7 | 0.731 | 0.752 | 0.703 | 0.72 | 0.691 | 0.796 | 0.752 | 0.708 | 0.744 | 0.667
20 | NCI-H2342 |  |  |  |  |  |  | 0.812 | 0.708 | 0.714 | 0.693 | 0.579 | 0.573 | 0.626 | 0.529 | 0.518 | 0.538 | 0.617 | 0.55 | 0.549 | 0.568
21 | A549 | 0.782 | 0.531 | 0.653 | 0.723 | 0.777 | 0.182 | 0.291 | 0.179 | 0.198 | 0.209 |  |  |  |  |  |  |  |  |  | 
22 | NCI-H1793 |  |  |  |  |  | 0.503 | 0.439 | 0.458 | 0.449 | 0.621 | 0.282 | 0.25 | 0.268 | 0.222 | 0.175 | 0.395 |  | 0.315 | 0.238 | 0.253
